Assay results reported in US5753656A, “Method for treating spinocerebellar degeneration” (Suntory Limited, priority 1994, dated 1998).
Entries after “also recorded” stand apart in the source; their conditions may differ. Where a name gives a salt, the structure may show the parent alone.

Columns and labels:
[1] = KOKAI No. 25323/84; cited from earlier work
[2] = Acute oral toxicity (LD50) in rats; format: in vivo
Description: As the active ingredients provided by the present invention for treatment of spinocerebellar degeneration, (6R)-L-erythro-5,6,7,8-tetrahydrobiopterin (BH4) and its salts are most preferable, but analogous compounds such as (6R,S)-5,6,7,8-tetrahydrobiopterin, 1',2'-diacetyl-5, 6,7,8-tetrahydrobiopterin, sepiapterin, 6-methyl-5,6,7,8-tetrahydropterin or 6-phenyl-5,6,7,8-tetrahydropterin and their salts may also be acceptable. However, needless to say, BH4 which naturally exists in the body is preferable. […] The other compounds belonging to formula (I) likewise have little or no acute toxicity.

[3] = system: Machado-Joseph disease (patients); test: Double-blind crossover trial of BH4: subjective improvement; format: in vivo, humans; conditions: 1 mg/kg once daily, 10 days
Procedure: (§1) To 5 patients with Machado-Joseph disease listed in Table 1, a placebo (ascorbic acid) and BH4 were administered in a double-blind clinical trial with the procedure as follows:
(§2) Three patients from three families diagnosed as "clinically definite family" and two patients from two families diagnosed as "probable family" according to the diagnostic criteria by Sakai (Sakai, T., ditto) were selected.
(§3) The patients received 1 mg/kg(b.w.) of BH4 or ascorbic acid in capsules once daily, after lunch. The chemical form of BH4 given was BH4 dihydrochloride in Cases 1 to 3 and 5 and (6R,S)-L-erythro-5, 6,7,8-tetrahydrobiopterin dihydrochloride in Case 4.
Each patient was asked with respect to six symptomatic parameters: dysarthria, dysphagia, disturbance of dexterity, disturbance of stationary balance on standing, disturbance of gait, and overall sense of general well-being.
(§4) A double-blind, placebo-controlled crossover design was adopted.
(§5) Data were analyzed using paired t-test.

[4] = system: Machado-Joseph disease (patients); test: Double-blind crossover trial of BH4: neurological examination; format: in vivo, humans; conditions: 1 mg/kg once daily, 10 days
Procedure: as §1, §2, §3
The examination was performed in respect of muscle tonus of the extremities, deep reflexes, severity of dystonia, disturbance of stationary balance on standing, finger-to-nose test, finger tapping test, diadochokinetic test, heel-to-knee tapping test, and dysarthria.
as §4, §5

[5] = system: Machado-Joseph disease (patients); test: Double-blind crossover trial of BH4: overall conclusion on neurologic symptoms; format: in vivo, humans; conditions: 1 mg/kg once daily, 10 days, oral capsules
Procedure: as §1, §2, §3
Each patient was assessed by the following three methods:
as §4, §5

## C[C@H](O)[C@H](O)C1CNc2nc(N)[nH]c(=O)c2N1 (stereo partly drawn) [(6R,S)-5,6,7,8-tetrahydrobiopterin]
[1]
  Toxicity as seen in the treatment of patients with Parkinson disease: only slightly toxic

## C[C@H](O)[C@H](O)[C@H]1CNc2nc(N)[nH]c(=O)c2N1 [BH4 dihydrochloride]
[2]
  Acute oral toxicity, assessment in words: practically non-toxic
[2]; rat, in vivo
  LD50: > 2000 mg/kg

## C[C@H](O)[C@H](O)[C@H]1CNc2nc(N)[nH]c(=O)c2N1 [BH4, (6R)-L-erythro-5,6,7,8-tetrahydrobiopterin]
[3]
  Subjective symptoms, overall result: none showed a statistically significant improvement
[4]
  Neurological parameters, overall result: none exhibited a statistically significant improvement
[5]
  Effect on neurologic symptoms of Machado-Joseph disease, conclusion: remarkable therapeutic efficacy; also recorded: effective in improving neurologic symptoms
[5]; listed as tetrahydrobiopterin
  Effect on neurologic symptoms of Machado-Joseph disease, conclusion: remarkable amelioration of the neurologic symptoms
